From patent US7935682B2, “Wound healing dressing for enhancing fibrocyte formation” (William Marsh Rice University, priority 2002, dated 2011)

System: monocyte to fibrocyte differentiation (PBMC)
Experiment: Fibrocyte differentiation assay: PBMC cultured in serum-free medium, fibrocytes enumerated by morphology
Type: cell-based, human
Details: for number of fibrocytes in culture: concentrations between 10 and 0.1 ng/ml; for number of fibrocytes in culture / ability to inhibit fibrocyte differentiation: PBMC in serum-free medium; for ability to inhibit fibrocyte differentiation: commercially available purified proteins, 6 days
Protocol: The rapid appearance of these cells, within 3 days of culture, was inhibited by human serum or plasma. To examine this process in more detail, PBMC were cultured at 5×10^5 cells per ml in serum-free medium containing increasing concentrations of human plasma for 6 days. […] The activity in the serum that inhibited fibrocyte formation was retained by a 30 kDa cutoff spin-filter (data not shown).
Plasma was fractionated by BaCl2 precipitation, heparin and ion exchange chromatography. Protein concentrations were assessed by spectrophotometry at 280 nm. Inhibition of fibrocyte differentiation was assessed by morphology. The fibrocyte inhibitory activity of a sample was defined as the reciprocal of the dilution at which it inhibited fibrocyte differentiation by 50%, when added to serum-free medium.
Serum amyloid P is a constitutive plasma protein and is closely related to CRP, the major acute phase protein in humans. […] Serum and plasma contain between 30-50 μg/ml SAP.
Cells were incubated in serum-free medium: RPMI (GibcoBRL Life, Invitrogen, Carlsbad, Calif., USA) supplemented with 10 mM HEPES (GibcoBRL/Life), 2 mM glutamine, 100 U/ml penicillin and 100 μg/ml streptomycin, 0.2% bovine serum albumin (BSA, Sigma), 5 μg/ml insulin (Sigma), 5 μg/ml iron-saturated transferrin (Sigma) and 5 ng/ml sodium selenite (Sigma). Normal human serum (Sigma), normal human plasma (Gulf Coast Regional Blood Center) or fetal calf serum (Sigma), column fractions, sera and synovial fluid from patients or purified proteins were added at the stated concentrations. Patient samples were obtained from a repository available to researchers at University of Texas Medical School at Houston. This repository keeps patient information confidential, and meets all NIH guidelines.
PBMC were cultured in 24 or 96 well tissue culture plates in 2 ml or 200 μl volumes respectively (Becton Dickinson, Franklin Lakes, N.J.) at 2.5×10^5 cells per ml in a humidified incubator containing 5% CO2 at 37° C. for the indicated times. Fibrocytes in 5 different 900 μm diameter fields of view were enumerated by morphology in viable cultures as adherent cells with an elongated spindle-shaped morphology as distinct from small lymphocytes or adherent monocytes. Alternatively cells were air dried, fixed in methanol and stained with haematoxylin and eosin (Hema 3 Stain, VWR, Houston, Tex.). Fibrocytes were counted using the above criterion and the presence of an oval nucleus. Enumeration of fibrocytes was performed on cells cultured for 6 days in flat-bottomed 96 well plates, with 2.5×10^4 cells per well. In addition, fibrocyte identity was confirmed by immunoperoxidase staining (see below). The fibrocyte inhibitory activity of a sample was defined as the reciprocal of the dilution at which it inhibited fibrocyte differentiation by 50%, when added to serum-free medium.
Experiments have shown that IL-4 and IL-13 are capable of promoting fibrocyte differentiation in vitro. Specifically, PBMC were cultured in serum-free medium in the presence of IL-4 or IL-13. […] Therefore a bandage or other topical agarose formulation as described above additionally containing IL-4 and/or IL-13 is expected to show further improvements in wound healing.

IL-13: cytokine, activator of the fibrotic response
number of fibrocytes in culture: enhanced the number of fibrocytes

SAP: commercially available purified human serum amyloid P (Calbiochem), a pentraxin plasma protein
activity from dilution curve (commercially available SAP): approximately 6.6×10^3 units/mg | concentration of maximal inhibitory activity (commercially available purified SAP): 1 µg/mL | ability to inhibit fibrocyte differentiation: able to inhibit fibrocyte differentiation | SAP concentration at the plasma dilution at which fibrocytes began to appear, comparable to the threshold concentration of purified SAP (worked out from 0.5% plasma and 30-50 μg/ml SAP): 0.15 to 0.25 µg/mL

B1: Protein S: purified human protein S, vitamin K-dependent anticoagulant (Calbiochem) (protein, UniProt P07225 42-676, looked up)
Vitamin K-dependent protein S: ANSLLEETKQGNLERECIEELCNKEEAREVFENDPETDYFYPKYLVCLRSFQTGLFTAARQSTNAYPDLRSCVNAIPDQCSPLPCNEDGYMSCKDGKASFTCTCKPGWQGEKCEFDINECKDPSNINGGCSQICDNTPGSYHCSCKNGFVMLSNKKDCKDVDECSLKPSICGTAVCKNIPGDFECECPEGYRYNLKSKSCEDIDECSENMCAQLCVNYPGGYTCYCDGKKGFKLAQDQKSCEVVSVCLPLNLDTKYELLYLAEQFAGVVLYLKFRLPEISRFSAEFDFRTYDSEGVILYAESIDHSAWLLIALRGGKIEVQLKNEHTSKITTGGDVINNGLWNMVSVEELEHSISIKIAKEAVMDINKPGPLFKPENGLLETKVYFAGFPRKVESELIKPINPRLDGCIRSWNLMKQGASGIKEIIQEKQNKHCLVTVEKGSYYPGSGIAQFHIDYNNVSSAEGWHVNVTLNIRPSTGTGVMLALVSGNNTVPFAVSLVDSTSEKSQDILLSVENTVIYRIQALSLCSDQQSHLEFRVNRNNLELSTPLKIETISHEDLQRQLAVLDKAMKAKVATYLGGLPDVPFSATPVNAFYNGCMEVNINGVQLDLDEAISKHNDIRAHSCPSVWKKTKNS
ability to inhibit fibrocyte differentiation: only SAP was able to inhibit fibrocyte differentiation

B2: CRP: purified human C-reactive protein (Calbiochem) (protein, UniProt P02741 19-224, looked up)
C-reactive protein: QTDMSRKAFVFPKESDTSYVSLKAPLTKPLKAFTVCLHFYTELSSTRGYSIFSYATKRQDNEILIFWSKDIGYSFTVGGSEILFEVPEVTVAPVHICTSWESASGIVEFWVDGKPRVRKSLKKGYTVGAEASIILGQEQDSFGGNFEGSQSLVGDIGNVNMWDFVLSPDEINTIYLGGPFSPNVLNWRALKYEVQGEVFTKPQLWP
ability to inhibit fibrocyte differentiation: only SAP was able to inhibit fibrocyte differentiation

B3: IL-4: cytokine, activator of the fibrotic response (protein, UniProt P05112 25-153, looked up)
Interleukin-4: HKCDITLQEIIKTLNSLTEQKTLCTELTVTDIFAASKNTTEKETFCRAATVLRQFYSHHEKDTRCLGATAQQFHRHKQLIRFLKRLDRNLWGLAGLNSCPVKEANQSTLENFLERLKTIMREKYSKCSS
number of fibrocytes in culture: enhanced the number of fibrocytes
